From patent publication US12403128B2, “Compositions and methods for blocking sodium channels” (University of Virginia Patent Foundation, priority 2017, dated 2025)
≈ marks a conversion by molar mass, not a printed value. Structures can show the parent of a compound that is named as a salt. Each block holds one compound with its values, some of them ahead of it.

Legend:
NaV1.7 [1] = molecular target: T1, NaV1.7 (Homo sapiens, UniProt Q15858); assay: Qube assay, NaV1.7; assay type: cell-based; conditions: human isoform; read-out: Qube EP IC50 NaV1.7
Description: (§1) Evaluation of Compounds on Human Isoforms Using Qube Assay.
(§2) Compounds were tested using a Qube assay across NaV1.5, NaV1.6 and NaV1.7.

Nav1.6 [2] = molecular target: T2, Nav1.6 (Homo sapiens, UniProt Q9UQD0); assay: High-throughput flux assay, Nav1.6; assay type: cell-based; conditions: human isoform;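 further: IC50 from the flux assay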
Description: (§3) Evaluation of Compounds on Human Isoforms Using a High-Throughput Flux Assay
(§4) Compounds were tested using a high-throughput flux assay across Nav1.5, Nav1.6 and Nav1.7.

NaV1.5 [3] = molecular target: T3, NaV1.5 (Homo sapiens, UniProt Q14524); assay: Qube assay, NaV1.5; assay type: cell-based; conditions: human isoform; read-out: Qube EP IC50 NaV1.5
T3 sequence (Q14524 whole entry, canonical isoform): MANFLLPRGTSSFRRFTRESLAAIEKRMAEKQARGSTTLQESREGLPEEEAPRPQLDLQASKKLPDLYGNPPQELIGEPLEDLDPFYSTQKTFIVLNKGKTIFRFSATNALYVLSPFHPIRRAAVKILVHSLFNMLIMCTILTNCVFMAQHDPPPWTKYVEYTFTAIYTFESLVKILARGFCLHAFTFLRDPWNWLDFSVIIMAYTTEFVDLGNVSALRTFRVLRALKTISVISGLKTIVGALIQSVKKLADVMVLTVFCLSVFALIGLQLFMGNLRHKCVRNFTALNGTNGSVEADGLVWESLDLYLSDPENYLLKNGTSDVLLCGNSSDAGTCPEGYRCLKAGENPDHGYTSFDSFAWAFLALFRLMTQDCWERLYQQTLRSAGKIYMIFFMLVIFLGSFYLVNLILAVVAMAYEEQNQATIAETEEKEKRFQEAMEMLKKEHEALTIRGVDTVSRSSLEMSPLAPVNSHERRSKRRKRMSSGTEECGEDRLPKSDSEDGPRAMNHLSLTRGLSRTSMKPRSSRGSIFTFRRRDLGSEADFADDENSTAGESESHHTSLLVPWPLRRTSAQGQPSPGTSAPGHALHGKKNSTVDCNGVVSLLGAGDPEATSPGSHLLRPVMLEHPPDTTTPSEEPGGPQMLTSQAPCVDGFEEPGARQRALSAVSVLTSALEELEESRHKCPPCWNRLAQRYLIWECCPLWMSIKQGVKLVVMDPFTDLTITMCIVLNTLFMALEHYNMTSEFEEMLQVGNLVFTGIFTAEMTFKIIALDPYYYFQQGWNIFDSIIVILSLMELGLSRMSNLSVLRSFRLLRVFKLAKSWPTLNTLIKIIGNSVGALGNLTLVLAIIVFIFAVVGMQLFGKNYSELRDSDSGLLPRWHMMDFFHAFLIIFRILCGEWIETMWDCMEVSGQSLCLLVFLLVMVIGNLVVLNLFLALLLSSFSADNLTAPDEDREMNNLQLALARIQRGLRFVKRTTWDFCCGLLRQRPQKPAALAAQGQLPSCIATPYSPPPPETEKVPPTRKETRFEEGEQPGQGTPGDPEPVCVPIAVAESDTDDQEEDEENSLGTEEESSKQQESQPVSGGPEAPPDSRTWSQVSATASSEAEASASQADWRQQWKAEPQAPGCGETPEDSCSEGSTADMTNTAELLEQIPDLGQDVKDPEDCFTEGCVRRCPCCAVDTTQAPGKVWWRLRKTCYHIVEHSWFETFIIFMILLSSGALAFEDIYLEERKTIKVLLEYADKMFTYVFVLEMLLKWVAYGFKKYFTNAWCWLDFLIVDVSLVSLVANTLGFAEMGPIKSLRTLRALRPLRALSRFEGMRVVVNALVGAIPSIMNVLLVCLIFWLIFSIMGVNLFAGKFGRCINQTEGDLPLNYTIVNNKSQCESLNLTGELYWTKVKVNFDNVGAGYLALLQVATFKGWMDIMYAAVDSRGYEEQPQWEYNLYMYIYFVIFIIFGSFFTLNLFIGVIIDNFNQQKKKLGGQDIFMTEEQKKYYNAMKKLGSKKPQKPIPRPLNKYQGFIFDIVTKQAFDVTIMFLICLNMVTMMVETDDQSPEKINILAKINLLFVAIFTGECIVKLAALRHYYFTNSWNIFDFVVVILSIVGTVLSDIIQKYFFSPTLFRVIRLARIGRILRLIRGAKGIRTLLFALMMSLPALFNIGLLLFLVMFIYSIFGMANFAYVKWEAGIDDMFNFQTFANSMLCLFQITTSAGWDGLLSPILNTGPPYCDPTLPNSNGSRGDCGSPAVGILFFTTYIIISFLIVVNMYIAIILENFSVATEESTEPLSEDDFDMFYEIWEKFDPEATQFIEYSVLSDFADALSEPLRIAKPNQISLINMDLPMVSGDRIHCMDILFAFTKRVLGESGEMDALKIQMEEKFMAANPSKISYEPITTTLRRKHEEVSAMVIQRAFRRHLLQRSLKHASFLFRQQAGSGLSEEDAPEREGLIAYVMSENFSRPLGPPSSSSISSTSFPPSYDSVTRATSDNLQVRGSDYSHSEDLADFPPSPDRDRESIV
Description: as §1, §2

[4] = test system: knock-in mouse carrying the human N1768D gain of function NaV1.6 mutation (spontaneous seizures); assay: Seizure suppression in NaV1.6 mutation knock-in mouse model; assay type: in vivo; conditions: 100 mg/kg
Description: In Vivo Evaluation for Seizure Suppression in a Human Gain of Function NaV1.6 Mutation Knock-In Mouse Model.
Compounds were tested in vivo for seizure suppression in a knock-in mouse carrying the human N1768D gain of function NaV1.6 mutation. These knock-in mice experience spontaneous seizures. All test compounds were evaluated at 100 mg/kg.

[5] = molecular target: T4, rat NaV1.6 sodium channels (Rattus norvegicus, UniProt O88420); assay: Dose response on rat NaV1.6 channels in HEK293 cells; assay type: cell-based; conditions: rat Nav1.6 channel
T4 construct: expressed in transfected cells; host or cells: HEK293
T4 sequence (O88420 whole entry): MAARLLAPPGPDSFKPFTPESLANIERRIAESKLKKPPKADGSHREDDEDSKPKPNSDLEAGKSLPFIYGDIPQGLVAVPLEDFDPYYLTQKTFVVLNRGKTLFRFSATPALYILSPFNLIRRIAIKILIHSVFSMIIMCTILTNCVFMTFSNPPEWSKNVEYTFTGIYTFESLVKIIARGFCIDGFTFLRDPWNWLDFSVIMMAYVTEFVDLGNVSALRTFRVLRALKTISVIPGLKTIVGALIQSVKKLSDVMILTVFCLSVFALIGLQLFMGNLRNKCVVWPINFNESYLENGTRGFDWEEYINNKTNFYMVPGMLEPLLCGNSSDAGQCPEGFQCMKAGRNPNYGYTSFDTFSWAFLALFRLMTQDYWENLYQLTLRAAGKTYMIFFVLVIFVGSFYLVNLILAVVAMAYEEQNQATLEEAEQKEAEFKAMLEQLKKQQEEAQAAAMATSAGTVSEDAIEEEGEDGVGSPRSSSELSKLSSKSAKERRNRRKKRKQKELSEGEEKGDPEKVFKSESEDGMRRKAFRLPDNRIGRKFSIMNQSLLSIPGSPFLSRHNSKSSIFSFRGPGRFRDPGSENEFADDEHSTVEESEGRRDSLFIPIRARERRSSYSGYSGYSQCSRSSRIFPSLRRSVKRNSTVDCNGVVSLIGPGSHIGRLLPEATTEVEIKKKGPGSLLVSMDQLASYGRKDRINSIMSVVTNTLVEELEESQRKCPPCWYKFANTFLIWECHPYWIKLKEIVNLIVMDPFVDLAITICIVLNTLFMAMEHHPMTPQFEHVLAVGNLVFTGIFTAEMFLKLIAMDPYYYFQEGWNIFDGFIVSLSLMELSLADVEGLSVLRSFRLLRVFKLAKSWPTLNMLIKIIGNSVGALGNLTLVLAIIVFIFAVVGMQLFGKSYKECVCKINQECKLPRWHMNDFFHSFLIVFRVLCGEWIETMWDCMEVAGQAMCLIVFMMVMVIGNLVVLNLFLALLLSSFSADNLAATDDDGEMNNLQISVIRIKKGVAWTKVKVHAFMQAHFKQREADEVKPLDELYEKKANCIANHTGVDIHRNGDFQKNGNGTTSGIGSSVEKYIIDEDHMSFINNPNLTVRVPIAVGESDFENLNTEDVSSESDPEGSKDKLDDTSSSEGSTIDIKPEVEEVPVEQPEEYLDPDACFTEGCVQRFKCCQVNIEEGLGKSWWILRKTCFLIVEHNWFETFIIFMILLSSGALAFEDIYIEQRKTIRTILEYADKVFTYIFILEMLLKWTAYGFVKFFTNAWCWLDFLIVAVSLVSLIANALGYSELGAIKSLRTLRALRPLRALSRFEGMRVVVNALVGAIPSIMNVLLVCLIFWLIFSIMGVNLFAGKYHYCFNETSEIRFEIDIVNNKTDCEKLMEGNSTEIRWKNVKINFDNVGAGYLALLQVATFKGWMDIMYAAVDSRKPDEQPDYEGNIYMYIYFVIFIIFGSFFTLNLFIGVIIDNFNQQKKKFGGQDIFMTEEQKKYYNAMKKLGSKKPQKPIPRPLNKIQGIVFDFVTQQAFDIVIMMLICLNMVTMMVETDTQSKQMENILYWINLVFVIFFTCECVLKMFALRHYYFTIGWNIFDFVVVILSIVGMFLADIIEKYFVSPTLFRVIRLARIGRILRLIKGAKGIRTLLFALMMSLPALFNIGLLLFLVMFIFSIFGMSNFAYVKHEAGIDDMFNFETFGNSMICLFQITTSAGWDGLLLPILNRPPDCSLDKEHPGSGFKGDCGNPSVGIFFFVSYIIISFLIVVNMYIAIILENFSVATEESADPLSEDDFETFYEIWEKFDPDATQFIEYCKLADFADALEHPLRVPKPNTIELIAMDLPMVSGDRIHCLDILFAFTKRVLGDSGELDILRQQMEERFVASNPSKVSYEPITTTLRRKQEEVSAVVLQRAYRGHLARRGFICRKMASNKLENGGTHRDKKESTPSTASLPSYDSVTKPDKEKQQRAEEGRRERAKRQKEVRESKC
Description: Evaluation of Dose Response and Activation Response Compounds on Rat NaV1.6 Channels in Human Embryonic Kidney Cells (HEK293).

Nav1.6 [6] = molecular target: T2, Nav1.6; assay: Qube assay, NaV1.6; assay type: cell-based; conditions: human isoform; read-out: Qube EP IC50 NaV1.6
Description: as §1, §2

NaV1.7 [7] = molecular target: T1, NaV1.7; assay: High-throughput flux assay, NaV1.7; assay type: cell-based; conditions: human isoform;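 further: IC50 from the flux assay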
Description: as §3, §4

NaV1.6 sodium channels = NaV1.6 sodium channels (Homo sapiens, UniProt Q9UQD0); assay: State-dependent inhibition: steady state inactivation, use-dependent block; assay type: cell-based; conditions: for use-dependent block: 20 Hz
Description: Evaluation of Compounds as State-Dependent Inhibitors
Use dependent block is an important characteristic for AED activity since it allows increased inhibition of sodium channels during increased neuronal activity as is observed during seizures.

Nav1.6 [8] = molecular target: T2, Nav1.6; assay: % block of Nav1.6 at 100 μM and IC50 (NaV1.6); assay type: cell-based; conditions: for inhibition at 100 µM: 100 μM compound
Description: Evaluation of Compounds for % Block of Nav1.6 at 100 μM
Compounds of the present invention were tested in an assay for % block of Nav1.6 at a concentration of 100 μM compound. Table 1 also indicates the melting point ranges for some compounds.
Some such compounds correspond to a compound of Formula III, wherein R9 is substituted with a halogen, a nitro or a CF3 group. In comparing MV1089, MV1090 and MV1091, it is shown that compounds of Formula III where R3 is H result in higher % block than when R3 is substituted. e.g., by OCH3. In comparing MV1066, MV1084, MV1085, MV1086, MV1087 and MV1088, it is shown that compounds of Formula III where R9 is halogen, a nitro or a CF3 group result in higher % block than when R9 is OCH3, COOH or CH3.

NaV1.5 [9] = molecular target: T3, NaV1.5; assay: High-throughput flux assay, NaV1.5; assay type: cell-based; conditions: human isoform;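 further: IC50 from the flux assay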
Description: as §3, §4

[10] = test system: maximal electroshock (MES) seizures; assay: MES test, comparison compounds (species not stated); assay type: in vivo
Description: The MES is a model for generalized tonic-clonic seizures and provides an indication of a compound's ability to prevent seizure spread when all neuronal circuits in the brain are maximally active. These seizures are highly reproducible and are electrophysiologically consistent with human seizures. For an MES test, a drop of anesthetic/electrolyte solution (0.5% tetracaine hydrochloride in 0.9% saline) is applied to the eyes of each animal prior to placement of corneal electrodes Electrical stimulus in the MES test may be 50 mA, 60 Hz, for mice and 150 mA, 60 Hz, for rats delivered for 0.2 s. Abolition of the hindleg tonic extensor component of the seizure was used as the endpoint. Mice may be initially tested at various intervals following various doses, e.g., 30, 100 and 300 mg/kg of test compound given by intraperitoneal (IP) injection while rats are initially screened at a fixed dose of 30 mg/kg

[11] = Tox, comparison compounds (species not stated); assay type: in vivo
[12] = test system: 6 Hz psychomotor seizures; assay: 6 Hz test, comparison compounds (species not stated); assay type: in vivo; conditions: species and current not stated
Description: (§5) Compounds were tested using a 6 Hz psychomotor seizure test. […] For example, both the MES and scM models are insensitive to levetiracetam, a compound considered potentially useful in the management of refractory seizures. […] Thus, the 6 Hz test can serve as a therapy resistant screening paradigm of acute seizure activity.

[13] = test system: Metrazol-induced clonic seizures; assay: scM test, comparison compounds (species not stated); assay type: in vivo
Description: (§6) Subcutaneous injection of the convulsant Metrazol produces clonic seizures in laboratory animals. […] Animals may be pretreated with various doses of the test compound given by ip injection. At a previously determined TPE (time to peak) of the test compound, the dose of Metrazol which will induce convulsions in 97% of animals (CD97:85 mg/kg mice) may be injected into a loose fold of skin in the midline of the neck. The animals may be placed in isolation cages to minimize stress and observed for the next 30 min for the presence or absence of a seizure. An episode of clonic spasms, approximately 3-5 seconds, of the fore and/or hindlimbs, jaws, or vibrissae may be taken as the endpoint. […] The scM test represents acute animal seizures.

Chemical stability = assay type: physicochemical; conditions: after 24 h at pH 7.4
CYP3A4 = CYP3A4 (Homo sapiens, UniProt P08684); assay: Metabolic stability (CYP3A4); assay type: in vitro ADME; conditions: CYP3A4, 1 hr
Chain of CYP3A4 (P08684 whole entry, species assumed): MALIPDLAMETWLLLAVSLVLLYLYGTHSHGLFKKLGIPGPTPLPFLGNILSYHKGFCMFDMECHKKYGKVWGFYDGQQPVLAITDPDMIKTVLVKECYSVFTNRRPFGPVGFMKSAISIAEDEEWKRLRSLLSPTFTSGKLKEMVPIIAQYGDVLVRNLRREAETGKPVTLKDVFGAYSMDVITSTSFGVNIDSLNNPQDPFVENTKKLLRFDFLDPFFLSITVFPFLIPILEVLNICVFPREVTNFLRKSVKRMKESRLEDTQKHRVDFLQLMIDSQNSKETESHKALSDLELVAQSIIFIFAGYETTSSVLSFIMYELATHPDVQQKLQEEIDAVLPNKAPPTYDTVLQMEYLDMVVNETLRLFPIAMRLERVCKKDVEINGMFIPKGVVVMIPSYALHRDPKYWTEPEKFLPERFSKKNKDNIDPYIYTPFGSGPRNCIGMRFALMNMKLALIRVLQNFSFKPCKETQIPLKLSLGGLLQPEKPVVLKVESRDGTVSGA

Solubility = assay type: physicochemical
[14] = test system: 6 Hz psychomotor seizures; assay: 6 Hz psychomotor seizure test, mice; assay type: in vivo; conditions: Mus musculus, IP
Description: Evaluation of Compounds in 6 Hz Pyschomotor Seizure Test
as §5

[15] = test system: maximal electroshock (MES) seizures; assay: MES (maximal electroshock) test, mice; assay type: in vivo; conditions: Mus musculus, mice
Description: Evaluation of Compounds in MES Models of Seizures. […] These seizures are highly reproducible and are electrophysiologically consistent with human seizures. […] Abolition of the hindleg tonic extensor component of the seizure was used as the endpoint.

[16] = test system: maximal electroshock (MES) seizures; assay: MES (maximal electroshock) test, rats; assay type: in vivo; conditions: Rattus norvegicus, rats
Description: Evaluation of Compounds in MES Models of Seizures. The MES is a model for generalized tonic-clonic seizures and provides an indication of a compound's ability to prevent seizure spread when all neuronal circuits in the brain are maximally active. These seizures are highly reproducible and are electrophysiologically consistent with human seizures. […] Abolition of the hindleg tonic extensor component of the seizure was used as the endpoint.

[17] = test system: Metrazol-induced clonic seizures; assay: scM (subcutaneous Metrazol) test, rats; assay type: in vivo; conditions: Rattus norvegicus, rats
Description: as §6, with “Evaluation of Compounds in scM Models of Seizures. Subcutaneous” for “Subcutaneous”

[18] = Behavioral toxicity (TOX, TD50), rats; assay type: in vivo; conditions: rat, in vivo
[19] = test system: Metrazol-induced clonic seizures; assay: scM (subcutaneous Metrazol) test, mice; assay type: in vivo; conditions: Mus musculus, mice
Description: as §6, with “Evaluation of Compounds in scM Models of Seizures. Subcutaneous” for “Subcutaneous”

[20] = test system: corneal kindled mice seizures; assay: Corneal kindled mice model; assay type: in vivo; conditions: for Avg. Score / N/F (animals active over number tested): TPE 0.5 hours
Description: Evaluation of Compounds in Corneal Kindled Mice Model.
Corneal kindled mice are kindled electrically via 3 second stimulation at 8 mA, 60 Hz through corneal electrodes to produce 10 consecutive stage […] seizures according to the Racine scale. Animals are defined as kindled once they progress to a reproducible stage 5 seizure. 72 hours after the mice have been kindled the test substance is administered and, according to a previously determined TPE (time to peak), the animals are electrically stimulated. The animals are considered protected when displaying a stage 3, or lower, seizure.

in vivo = conditions: mouse

Compound: c1ccc(-c2c[nH]c(-c3ccccc3)n2)cc1 [MV1115]
ED50 [10]: 61.7 mg/kg | Tox [11]: 126 mg/kg | ED50 [12]: 47.2 mg/kg | ED50 [13]: 160 mg/kg | recovery at 24 h (Chemical stability): 94% | IC50 (Nav1.6 [8]; comparison compounds, read-out: IC50 (NaV1.6)): 32 µM | recovery at 1 hr (CYP3A4): 87% | solubility (Solubility; pH 3, aqueous buffer): 237 µM (≈ 52.2 µg/mL) | solubility (Solubility; pH 7.4, aqueous buffer): 175 µM (≈ 38.5 µg/mL)

Compound: COc1ccc(-c2nc(-c3ccccc3)c[nH]2)cc1 [MV1118]
ED50 [10]: 46.8 mg/kg | Tox [11]: 223 mg/kg | ED50 [12]: 52.2 mg/kg | ED50 [13]: 142 mg/kg

Compound: Cc1nc(-c2cccc(C(F)(F)F)c2)[nH]c1-c1ccccc1 [MV1504, 4-methyl-5-phenyl-2-[3-(trifluoromethyl)phenyl]-1H-imidazole hydrochloride]
IC50 (NaV1.7 [1]): 7.95 µM | IC50 (Nav1.6 [2]): 2.07 µM | IC50 (NaV1.5 [3]): 13.3 µM | seizure suppression [4]: suppressed seizures | IC50 [5]: 12 µM | IC50 (Nav1.6 [6]): 3.32 µM | IC50 (NaV1.7 [7]): 5.72 µM | shift of half maximal voltage for inactivation (V1/2) compared to control (NaV1.6 sodium channels; 10 μM): −10.9 mV | use-dependent block (NaV1.6 sodium channels): profound use-dependent block | inhibition at 100 µM (Nav1.6 [8]): 100% | IC50 (NaV1.5 [9]): 4.32 µM

Compound: COc1ccc(-c2nc3ccccc3[nH]2)cc1 [MV1062, 2-(4-methoxyphenyl)-1H-1,3-benzodiazole]
ED50 ([14]; 32 mA, Table 14, read-out: 6 Hz (32 mA) ED50): 69.6 mg/kg | ED50 ([14]; (14 mA) [sic], Table 14, read-out: 6 Hz (14 mA) ED50): 80.5 mg/kg | ED50 ([15]; IP, Table 14, read-out: MES ED50): 30.8 mg/kg | ED50 ([15]; read-out: ED50 (MES test)): 30.8 mg/kg | ED50 ([16]; IP, Table 15, read-out: MES ED50): 10.8 mg/kg | ED50 ([16]; read-out: ED50 (MES test)): 10.8 mg/kg | ED50 ([17]; sc, read-out: ED50 (scM test)): 123 mg/kg | ED50 ([17]; IP, Table 15, read-out: sCM ED50): 122 mg/kg | TD50 ([18]; IP, Table 15, read-out: TOX TD50): > 500 mg/kg | TD50 ([18]; read-out: TD50 (behavioral toxic dose)): > 500 mg/kg | inhibition at 100 µM (Nav1.6 [8]): 70% | IC50 (Nav1.6 [8]; NaV1.6, Table 2, MV1060-MV1091, unit inferred, read-out: IC50): 90.2 µM | ED50 ([19]; sc, read-out: ED50 (scM test)): 206 mg/kg | ED50 ([19]; IP, Table 14, read-out: sCM ED50): 206 mg/kg | Avg. Score ([20]; 20 mg/kg): 5.0 | N/F (animals active over number tested) ([20]; 20 mg/kg): 0/8 | Avg. Score ([20]; 55 mg/kg): 4.0 | N/F (animals active over number tested) ([20]; 55 mg/kg): 3/8 | Avg. Score ([20]; 100 mg/kg): 1.375 | N/F (animals active over number tested) ([20]; 100 mg/kg): 7/8 | ED50 ([20]; Mus musculus): 63.6 mg/kg | TD50 (in vivo): 601 mg/kg | TD50 (in vivo; ip): 601 mg/kg

Now from value to compound, other results behind:

IC50 (NaV1.7 [1]): 3.88 µM | IC50 (Nav1.6 [2]): 1.61 µM | IC50 [5]: 1.2 µM | IC50 (Nav1.6 [6]): 0.749 µM | IC50 (NaV1.7 [7]): 4.76 µM | shift of half maximal voltage for inactivation (V1/2) compared to control (NaV1.6 sodium channels; 1 μM): −9.3 mV | inhibition at 100 µM (Nav1.6 [8]): 95%
Compound: Cc1nc(-c2ccc(Cl)cc2)[nH]c1-c1ccccc1 [MV1502, 2-(4-chlorophenyl)-4-methyl-5-phenyl-1H-imidazole hydrochloride]
IC50 (NaV1.5 [3]): 12.7 µM | seizure suppression [4]: suppressed seizures | IC50 (NaV1.5 [9]): 4.89 µM

IC50 (NaV1.7 [1]): 8.04 µM | IC50 (Nav1.6 [2]): 1.59 µM | IC50 [5]: 5.4 µM | IC50 (Nav1.6 [6]): 2.72 µM | IC50 (NaV1.7 [7]): 5.22 µM | shift of half maximal voltage for inactivation (V1/2) compared to control (NaV1.6 sodium channels; 10 μM): −12.7 mV | use-dependent block (NaV1.6 sodium channels): profound use-dependent block | inhibition at 100 µM (Nav1.6 [8]): 100%
Compound: Cc1nc(-c2cccc(Cl)c2)[nH]c1-c1ccccc1 [MV1505, 2-(3-chlorophenyl)-4-methyl-5-phenyl-1H-imidazole]
IC50 (NaV1.5 [3]): 10 µM | seizure suppression [4]: suppressed seizures | IC50 (NaV1.5 [9]): 3.64 µM
